Test systems include OVCAR-4 ovarian; UACC-257 melanoma; CAKI-1 renal; UACC-62 melanoma; SNB-75 CNS; SK-MEL-28 melanoma; UO-31 renal; SK-MEL-2 melanoma; SN12C renal; K-562 leukemia.
What all share (assay): growth of human tumour cells (NCI), 48 h

The structures appear in SMILES notation.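 How tested: cells in 96-well plates exposed to compound for 48 hours at five concentrations. Here, GI50 denotes the concentration required for 50% inhibition of growth. TGI is the concentration that stops growth completely.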

The results in this text go back to PubChem BioAssay (NCI).

For the compound `COC(=O)c1c(O)c([N+](=O)[O-])cc2c1c1c(n2Cc2ccccc2)C(=O)c2ccccc2C1=O`, the GI50 is 57.3 µM in the experiment on OVCAR-4 ovarian; 41 µM with UACC-257 melanoma; 38.2 µM in the experiment with CAKI-1 renal; 30.9 µM in the experiment with UACC-62 melanoma; above 100 µM in the experiment with SNB-75 CNS; 34.9 µM in the experiment on SK-MEL-28 melanoma. Also, the GI50 in the experiment on UO-31 renal is 21.1 µM; with SK-MEL-2 melanoma, 27.2 µM; with SN12C renal, 25.5 µM; in the experiment on K-562 leukemia, 19 µM. Besides, the TGI in the experiment on OVCAR-4 ovarian, with UACC-257 melanoma, with CAKI-1 renal, in the experiment with UACC-62 melanoma, in the experiment on SNB-75 CNS and in the experiment with SK-MEL-28 melanoma was above 100 µM in each case. For the same compound, the TGI with UO-31 renal is above 100 µM; with SK-MEL-2 melanoma it was above 100 µM; with SN12C renal it was 65.7 µM; in the experiment on K-562 leukemia, 92.6 µM.

For `CC1(C)OB(O)OC1(C)C`, the TGI in the experiment on OVCAR-4 ovarian, in the experiment on UACC-257 melanoma, with CAKI-1 renal, with UACC-62 melanoma, in the experiment with SNB-75 CNS and with SK-MEL-28 melanoma was above 100 µM in each case. In addition, the TGI in the experiment with UO-31 renal, in the experiment on SK-MEL-2 melanoma, in the experiment with SN12C renal and in the experiment on K-562 leukemia was above 100 µM throughout.

Turning to `CN1C(=O)[C@@H](NC(=O)[C@H](CCC(F)(F)F)[C@H](CCC(F)(F)F)C(N)=O)N=C(c2ccccc2)c2ccccc21`, the GI50 is 86.8 µM in the experiment with OVCAR-4 ovarian; 67.7 µM in the experiment with UACC-257 melanoma; above 100 µM with CAKI-1 renal; 35.7 µM in the experiment with UACC-62 melanoma; 32.6 µM in the experiment on SNB-75 CNS; 59.7 µM in the experiment on SK-MEL-28 melanoma. The GI50 in the experiment with UO-31 renal is 49 µM; in the experiment on SK-MEL-2 melanoma it was above 100 µM; in the experiment with SN12C renal, above 100 µM; in the experiment on K-562 leukemia it was above 100 µM. Besides, the TGI in the experiment on OVCAR-4 ovarian, in the experiment with UACC-257 melanoma, in the experiment on CAKI-1 renal, with UACC-62 melanoma, in the experiment with SNB-75 CNS and in the experiment with SK-MEL-28 melanoma was above 100 µM each time. Also, the TGI in the experiment on UO-31 renal, in the experiment on SK-MEL-2 melanoma, with SN12C renal and with K-562 leukemia was above 100 µM each time.

As to `COC1=CC(=O)C(OC)=C(OC)C1=O`, the GI50 is 3.05 µM with OVCAR-4 ovarian; 14.2 µM with UACC-257 melanoma; 16.1 µM in the experiment with CAKI-1 renal; 14.4 µM with UACC-62 melanoma; 12.1 µM in the experiment with SNB-75 CNS; 28.3 µM in the experiment on SK-MEL-28 melanoma. Besides, the GI50 in the experiment with UO-31 renal was 13 µM; in the experiment on SK-MEL-2 melanoma, 9.98 µM; in the experiment on SN12C renal, 15.1 µM; with K-562 leukemia, 2.29 µM. Further, the TGI with OVCAR-4 ovarian turned out to be 9.69 µM; in the experiment on UACC-257 melanoma, 27.7 µM; in the experiment with CAKI-1 renal, 30 µM; in the experiment with UACC-62 melanoma it was 27.9 µM; in the experiment on SNB-75 CNS, 25.6 µM; in the experiment with SK-MEL-28 melanoma it was 94.1 µM. The TGI is 26.3 µM with UO-31 renal, 33.1 µM in the experiment with SK-MEL-2 melanoma, 28.8 µM with SN12C renal and 6.05 µM in the experiment with K-562 leukemia.

`CC(=O)O[C@@H]1[C@@H](O)C2=C3[C@]4(C)[C@@H]1C(C)(C)C(=O)C[C@@H]4[C@]3(O)[C@H](OC(C)=O)[C@@]1(C[C@@H]1C)C2=O`: the TGI was determined as 43.9 µM with OVCAR-4 ovarian; 37.2 µM in the experiment with UACC-257 melanoma; 33.2 µM with CAKI-1 renal; 33.2 µM in the experiment with UACC-62 melanoma; 75.4 µM with SNB-75 CNS; 37.1 µM with SK-MEL-28 melanoma. Besides, the TGI in the experiment with UO-31 renal was 33.9 µM; in the experiment with SK-MEL-2 melanoma it was 68.5 µM; in the experiment with SN12C renal it was 37.1 µM; with K-562 leukemia, above 100 µM.

On to `COC(=O)NC1(NC(=O)OC)NC(=O)c2cc(OC)c(OC)c(OC)c2N1`, for which the TGI was above 100 µM in the experiment with OVCAR-4 ovarian; above 100 µM in the experiment with UACC-257 melanoma; above 100 µM with CAKI-1 renal; above 100 µM with UACC-62 melanoma; 38.8 µM with SNB-75 CNS; above 100 µM in the experiment on SK-MEL-28 melanoma. In addition, the TGI with UO-31 renal is above 100 µM; in the experiment with SK-MEL-2 melanoma, 8.85 µM; in the experiment on SN12C renal, above 100 µM; with K-562 leukemia, above 100 µM.

As to `O=C(O)CCC/C=C\C[C@H]1C=CC(=O)/C1=C/C[C@@H](O)CCc1cccc(C(F)(F)F)c1`, the GI50 with OVCAR-4 ovarian was 3.94 µM; with UACC-257 melanoma, 2.36 µM; in the experiment with CAKI-1 renal, 3.92 µM; in the experiment with UACC-62 melanoma it was 2.29 µM; in the experiment on SNB-75 CNS, 9.41 µM; in the experiment with SK-MEL-28 melanoma it was 1.52 µM. Also, the GI50 in the experiment with UO-31 renal is 1.68 µM; in the experiment with SK-MEL-2 melanoma, 2.65 µM; with SN12C renal it was 3.41 µM; in the experiment on K-562 leukemia, 2.24 µM. Also, the TGI was determined as 16.8 µM with OVCAR-4 ovarian; 7.38 µM with UACC-257 melanoma; 14.7 µM in the experiment with CAKI-1 renal; 6.94 µM in the experiment with UACC-62 melanoma; 22.2 µM in the experiment with SNB-75 CNS; 4.4 µM in the experiment with SK-MEL-28 melanoma. Further, the TGI came out at 3.16 µM with UO-31 renal, 7.98 µM in the experiment with SK-MEL-2 melanoma, 26.8 µM in the experiment on SN12C renal and 10.1 µM with K-562 leukemia.

On to `O=C(/C=N/O)Nc1cc(Cl)c(Cl)cc1Cl`, for which the TGI is above 100 µM in the experiment with OVCAR-4 ovarian; 87.4 µM in the experiment on UACC-257 melanoma; 79.8 µM with CAKI-1 renal; 76.3 µM in the experiment with UACC-62 melanoma; 66.6 µM with SNB-75 CNS; above 100 µM in the experiment on SK-MEL-28 melanoma. Moreover, the TGI in the experiment on UO-31 renal was above 100 µM; in the experiment with SK-MEL-2 melanoma it was 54.2 µM; with SN12C renal, 94.3 µM; with K-562 leukemia, above 100 µM.

Turning to `O=C(O)c1cc2ccccc2oc1=O`, the TGI in the experiment with OVCAR-4 ovarian, in the experiment on UACC-257 melanoma, in the experiment with CAKI-1 renal, in the experiment on UACC-62 melanoma, with SNB-75 CNS and with SK-MEL-28 melanoma was above 100 µM each time. The TGI in the experiment with UO-31 renal, in the experiment with SK-MEL-2 melanoma, in the experiment with SN12C renal and in the experiment on K-562 leukemia was above 100 µM in each case.
